# In ChEMBL document CHEMBL3400025, “Synthesis, structural analysis and antitumor activity of novel 17α-picolyl and 17(E)-picolinylidene A-modified androstane derivatives” (Bioorg Med Chem, 2015):
# Columns and labels:
# MDA-MB-231 = experiment: Antiproliferative activity against ER negative human MDA-MB-231 cells assessed as inhibition of cell growth after 48 hrs by MTT assay; type: functional, cell-based; conditions: MDA-MB-231, 48 h
# MCF7 [1] = experiment: Antiproliferative activity against ER positive human MCF7 cells assessed as inhibition of cell growth after 48 hrs by MTT assay; type: functional, cell-based; conditions: MCF7, 48 h
# [2] = Antiproliferative activity against human PC3 cells assessed as inhibition of cell growth after 48 hrs by MTT assay; type: functional, cell-based; conditions: PC-3, 48 h
# HeLa = experiment: Antiproliferative activity against human HeLa cells assessed as inhibition of cell growth after 48 hrs by MTT assay; type: functional, cell-based
# A549 = experiment: Antiproliferative activity against human A549 cells assessed as inhibition of cell growth after 48 hrs by MTT assay; type: functional, cell-based; conditions: A549, 48 h
# HT-29 = experiment: Antiproliferative activity against human HT-29 cells assessed as inhibition of cell growth after 48 hrs by MTT assay; type: functional, cell-based; conditions: HT-29, 48 h
# MRC5 = experiment: Antiproliferative activity against human MRC5 cells assessed as inhibition of cell growth after 48 hrs by MTT assay; type: functional, cell-based; conditions: MRC5, 48 h
# MCF7 [3] = experiment: Cell cycle arrest in human MCF7 cells assessed as cells accumulation at G0/G1 phase at IC50 concentration after 48 hrs by flow cytometry (reference value: 47.55%); type: functional
# MCF7 [4] = experiment: Cell cycle arrest in human MCF7 cells assessed as cells accumulation at S phase at IC50 concentration after 48 hrs by flow cytometry (reference value: 29.30%); type: functional
# MCF7 [5] = experiment: Cell cycle arrest in human MCF7 cells assessed as cells accumulation at G2/M phase at IC50 concentration after 48 hrs by flow cytometry (Rvb =21.32 %); type: functional
# MCF7 [6] = experiment: Cell cycle arrest in human MCF7 cells assessed as cells accumulation at subG1 phase at IC50 concentration after 48 hrs by flow cytometry (Rvb =1.83 %); type: functional
# MCF7 [7] = experiment: Induction of apoptosis in human MCF7 cells assessed as apoptotic morphological changes at IC50 concentration after 48 hrs by light microscopy; type: functional
Structure (SMILES),IC50 (MDA-MB-231) [µM],IC50 (MCF7 [1]) [µM],IC50 [2] [µM],IC50 (HeLa) [µM],IC50 (A549) [µM],IC50 (HT-29) [µM],IC50 (MRC5) [µM],Activity (MCF7 [3]) [%],Activity (MCF7 [4]) [%],Activity (MCF7 [5]) [%],Activity (MCF7 [6]) [%],Activity (MCF7 [7]) [%]
C[C@]12CC[C@H](O)CC1=CC[C@@H]1[C@@H]2CC[C@@]2(C)[C@H]1CC[C@@]2(O)Cc1ccccn1,> 100,96.1,6.3,75.2,> 100,48.2,> 100,–,–,–,–,–
C[C@]12CC[C@H](O)CC1=CC[C@@H]1[C@@H]2CC[C@]2(C)/C(=C/c3ccccn3)CC[C@@H]12,> 100,> 100,> 100,> 100,> 100,> 100,> 100,–,–,–,–,–
C[C@]12CCC(=O)C=C1CC[C@@H]1[C@@H]2CC[C@]2(C)/C(=C/c3ccccn3)CC[C@@H]12,> 100,> 100,–,> 100,> 100,> 100,> 100,–,–,–,–,–
C[C@]12CCC(=O)C=C1CC[C@@H]1[C@@H]2CC[C@@]2(C)[C@H]1CC[C@@]2(O)Cc1ccccn1,> 100,> 100,> 100,57.8,57.5,> 100,> 100,–,–,–,–,–
C[C@]12CCNC(=O)C=C1CC[C@@H]1[C@@H]2CC[C@]2(C)/C(=C/c3ccccn3)CC[C@@H]12,12.7,32.2,60.1,> 100,19.8,> 100,> 100,–,–,–,–,–
C[C@]12C/C(=C/O)C(=O)C=C1CC[C@@H]1[C@@H]2CC[C@]2(C)/C(=C/c3ccccn3)CC[C@@H]12,> 100,> 100,> 100,> 100,> 100,> 100,> 100,–,–,–,–,–
C[C@]12C/C(=C/O)C(=O)C=C1CC[C@@H]1[C@@H]2CC[C@@]2(C)[C@H]1CC[C@@]2(O)Cc1ccccn1,19,34.4,> 100,> 100,> 100,> 100,> 100,–,–,–,–,–
C[C@]12C/C(=N/O)C(=O)C=C1CC[C@@H]1[C@@H]2CC[C@@]2(C)[C@H]1CC[C@@]2(O)Cc1ccccn1,> 100,51.3,> 100,> 100,> 100,> 100,> 100,–,–,–,–,–
C[C@]12C/C(=N\O)C(=O)c3noc(c31)C[C@@H]1[C@@H]2CC[C@@]2(C)[C@H]1CC[C@@]2(O)Cc1ccccn1,50.4,25.3,6.6,> 100,> 100,> 100,> 100,–,–,–,–,–
C[C@]12C/C(=N/O)C(=O)/C(=N\O)C1=CC[C@@H]1[C@@H]2CC[C@@]2(C)[C@H]1CC[C@@]2(O)Cc1ccccn1,1.7,40.1,8.7,81.8,10.3,56,> 100,47.66,29.03,21.23,2.08,12.2
C[C@]1(CC#N)C(C#N)=CC[C@@H]2[C@@H]1CC[C@@]1(C)[C@H]2CC[C@@]1(O)Cc1ccccn1,7.9,18.2,31.5,> 100,> 100,71.8,> 100,46.06,31.34,21.12,1.48,–
COc1cccc2c1C(=O)c1c(O)c3c(c(O)c1C2=O)C[C@@](O)(C(=O)CO)C[C@@H]3O[C@H]1C[C@H](N)[C@H](O)[C@H](C)O1 [DOXORUBICIN],0.75,0.12,–,–,0.32,7.86,–,–,–,–,–,–
C[C@]12CCC(=O)C(O)=C1CC[C@@H]1[C@@H]2CC[C@]2(C)C(=O)CC[C@@H]12 [FORMESTANE],> 100,55.5,48.4,–,> 100,> 100,> 100,54.8,19.48,24.54,1.18,11.5
